Consider 28 molecules from patent US9926281B2 (priority 2014, dated 2018).

In one assay the target is human ADAMTS-5 (Homo sapiens (Human), UniProt Q9UNA0). The conditions noted are these: read-out: hADAMTS-5 potency IC50.
In a further assay the target is human TACE (Homo sapiens (Human), UniProt P78536). As to conditions: read-out: TACE potency IC50.
human TACE, sequence (P78536 whole entry, looked up, change not shown): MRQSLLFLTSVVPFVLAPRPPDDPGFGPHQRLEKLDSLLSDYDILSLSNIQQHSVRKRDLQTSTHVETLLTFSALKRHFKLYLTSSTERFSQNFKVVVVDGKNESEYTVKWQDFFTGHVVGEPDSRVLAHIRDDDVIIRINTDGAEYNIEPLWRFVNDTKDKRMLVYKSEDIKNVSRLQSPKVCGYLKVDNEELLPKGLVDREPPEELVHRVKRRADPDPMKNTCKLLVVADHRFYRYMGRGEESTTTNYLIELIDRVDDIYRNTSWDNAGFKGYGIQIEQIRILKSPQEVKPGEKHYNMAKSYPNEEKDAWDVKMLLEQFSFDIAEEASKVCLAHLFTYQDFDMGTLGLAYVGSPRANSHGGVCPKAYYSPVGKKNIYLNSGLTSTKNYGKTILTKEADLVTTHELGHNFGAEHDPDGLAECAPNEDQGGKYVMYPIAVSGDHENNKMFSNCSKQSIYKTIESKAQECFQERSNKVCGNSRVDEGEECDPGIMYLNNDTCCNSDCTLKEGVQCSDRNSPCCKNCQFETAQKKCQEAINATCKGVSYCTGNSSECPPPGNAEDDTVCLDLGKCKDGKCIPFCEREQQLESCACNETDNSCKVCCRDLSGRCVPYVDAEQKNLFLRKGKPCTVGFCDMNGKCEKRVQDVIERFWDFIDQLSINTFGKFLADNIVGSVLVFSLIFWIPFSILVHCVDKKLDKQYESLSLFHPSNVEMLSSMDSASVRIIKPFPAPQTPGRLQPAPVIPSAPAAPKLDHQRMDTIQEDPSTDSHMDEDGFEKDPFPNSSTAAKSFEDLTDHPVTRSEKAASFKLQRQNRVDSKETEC

human ADAMTS-5, sequence (Q9UNA0 262-930): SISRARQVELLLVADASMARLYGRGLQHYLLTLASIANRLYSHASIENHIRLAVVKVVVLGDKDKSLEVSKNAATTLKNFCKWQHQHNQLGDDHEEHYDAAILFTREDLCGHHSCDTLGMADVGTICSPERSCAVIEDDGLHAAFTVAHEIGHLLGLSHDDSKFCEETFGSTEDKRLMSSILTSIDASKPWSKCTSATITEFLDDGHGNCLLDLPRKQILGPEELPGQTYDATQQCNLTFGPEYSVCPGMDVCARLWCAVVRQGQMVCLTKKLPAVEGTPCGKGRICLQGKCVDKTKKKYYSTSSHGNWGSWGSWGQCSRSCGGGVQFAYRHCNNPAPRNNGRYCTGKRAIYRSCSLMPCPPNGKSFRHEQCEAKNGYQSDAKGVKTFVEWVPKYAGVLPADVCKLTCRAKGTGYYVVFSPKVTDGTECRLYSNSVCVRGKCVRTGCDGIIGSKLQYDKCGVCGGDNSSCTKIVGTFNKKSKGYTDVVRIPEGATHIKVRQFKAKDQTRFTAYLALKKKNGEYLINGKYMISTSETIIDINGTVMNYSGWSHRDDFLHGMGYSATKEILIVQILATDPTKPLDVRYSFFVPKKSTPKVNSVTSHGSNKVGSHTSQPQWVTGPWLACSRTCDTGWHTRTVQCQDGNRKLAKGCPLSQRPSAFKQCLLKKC
Experimental for human ADAMTS-5: Finally, the fluorescence is read on the Envision (Perkin Elmer) after an incubation of 90 min at 37° C.

As to `C[C@H]1CN(C(=O)CCC2(C3CC3)NC(=O)NC2=O)CCN1c1cc(Cl)ncn1` (stereo partly drawn) [compound 256, 5-[3-[(3S)-4-(6-chloropyrimidin-4-yl)-3-methyl-piperazin-1-yl]-3-oxo-propyl]-5-cyclopropyl-imidazolidine-2,4-dione], the IC50 at human ADAMTS-5 was 1410 nM; at human TACE it was more than 20000 nM.

Consider `C[C@H]1CN(C(=O)CCC2(C3CC3)NC(=O)NC2=O)CCN1c1cc(Cl)cc(Cl)n1` (stereo partly drawn) [compound 257, 5-cyclopropyl-5-[3-[(3S)-4-(4,6-dichloro-2-pyridyl)-3-methyl-piperazin-1-yl]-3-oxo-propyl]imidazolidine-2,4-dione], for which the IC50 on human ADAMTS-5 is 1570 nM; on human TACE, more than 4000 nM.

Consider `C[C@H]1CN(C(=O)CCC2(C3CC3)NC(=O)NC2=O)CCN1c1cc(Cl)nc(Cl)c1` (stereo partly drawn) [compound 258, 5-cyclopropyl-5-[3-[(3S)-4-(2,6-dichloro-4-pyridyl)-3-methyl-piperazin-1-yl]-3-oxo-propyl]imidazolidine-2,4-dione], for which the 50% inhibitory concentration (IC50) was 1530 nM at human ADAMTS-5 and more than 20000 nM at human TACE.

For the molecule `CC(CC1(c2ccccn2)NC(=O)NC1=O)C(=O)N1CCN(c2cccc(F)c2)[C@@H](C)C1` (stereo partly drawn) [compound 263, 5-[3-[(3S)-4-(3-fluorophenyl)-3-methyl-piperazin-1-yl]-2-methyl-3-oxo-propyl]-5-(2-pyridyl)imidazolidine-2,4-dione], the concentration for half-maximal inhibition (IC50) on human ADAMTS-5 is 19 nM; at human TACE, 2620 nM.

For `CC(CC1(c2ccccn2)NC(=O)NC1=O)C(=O)N1CCN(c2ccc(F)c(F)c2)[C@@H](C)C1` (stereo partly drawn) [compound 264, 5-[3-[(3S)-4-(3,4-difluorophenyl)-3-methyl-piperazin-1-yl]-2-methyl-3-oxo-propyl]-5-(2-pyridyl)imidazolidine-2,4-dione], the values for the 50% inhibitory concentration (IC50) at human ADAMTS-5 and at human TACE were 19 nM and more than 4000 nM, respectively.

Regarding `Cc1cc(N2CCN(C(=O)CCC3(C)NC(=O)NC3=O)CC2)c(F)cc1Cl` (centres unmarked) [compound 267, 5-[3-[4-(4-chloro-2-fluoro-5-methyl-phenyl)piperazin-1-yl]-3-oxo-propyl]-5-methyl-imidazolidine-2,4-dione], the results for the IC50 at human ADAMTS-5 and on human TACE were 3080 nM and more than 4000 nM, respectively.

For `CC(CC1(c2ccccn2)NC(=O)NC1=O)C(=O)N1CCN(c2cccc(Cl)c2)[C@@H](C)C1` (stereo partly drawn) [compound 269, 5-[3-[(3S)-4-(3-chlorophenyl)-3-methyl-piperazin-1-yl]-2-methyl-3-oxo-propyl]-5-(2-pyridyl)imidazolidine-2,4-dione], the IC50 on human ADAMTS-5 turned out to be 19 nM; on human TACE, 840 nM.

Turning to `CC(CC1(C)NC(=O)NC1=O)C(=O)N1C[C@H](C)N(c2cc(Cl)cc(Cl)c2)[C@@H](C)C1` (stereo partly drawn) [compound 271, 5-[3-[(3S,5S)-4-(3,5-dichlorophenyl)-3,5-dimethyl-piperazin-1-yl]-2-methyl-3-oxo-propyl]-5-methyl-imidazolidine-2,4-dione], the IC50 at human ADAMTS-5 is 1300 nM; at human TACE, more than 20000 nM.

For the molecule `C[C@H]1CN(C(=O)CCC2(C3CC3)NC(=O)NC2=O)CCN1c1ccc2[nH]ccc2c1` (stereo partly drawn) [compound 274, 5-cyclopropyl-5-[3-[(3S)-4-(1H-indol-5-yl)-3-methyl-piperazin-1-yl]-3-oxo-propyl]imidazolidine-2,4-dione], the IC50 is more than 4000 nM at human ADAMTS-5 and more than 20000 nM at human TACE.

As for `CC(CC1(C)NC(=O)NC1=O)C(=O)N1CCN(c2cccnc2)[C@@H](C)C1` (stereo partly drawn) [compound 275, 5-methyl-5-[2-methyl-3-[(3S)-3-methyl-4-(3-pyridyl)piperazin-1-yl]-3-oxo-propyl]imidazolidine-2,4-dione], the figures for the IC50 at human ADAMTS-5 and at human TACE were 266 nM and more than 20000 nM, respectively.

As to `O=C1NC(=O)C(CCC(=O)N2CCN(c3ccncc3)CC2)(C2CC2)N1` (centres unmarked) [compound 278, 5-cyclopropyl-5-[3-oxo-3-[4-(4-pyridyl)piperazin-1-yl]propyl]imidazolidine-2,4-dione], the half-maximal inhibitory concentration (IC50) at human ADAMTS-5 and at human TACE was more than 20000 nM in each case.

With `COCC1(CC(C)C(=O)N2CCN(c3cc(F)c(Cl)c(F)c3)CC2)NC(=O)NC1=O` (centres unmarked) [compound 279, 5-[3-[4-(4-chloro-3,5-difluoro-phenyl)piperazin-1-yl]-2-methyl-3-oxo-propyl]-5-(methoxymethyl)imidazolidine-2,4-dione], the values for the IC50 on human ADAMTS-5 and at human TACE were 19 nM and 2990 nM, respectively.

For `C[C@H]1CN(C(=O)CCC2(C3CC3)NC(=O)NC2=O)CCN1c1cccc2ccoc12` (stereo partly drawn) [compound 280, 5-[3-[(3S)-4-(benzofuran-7-yl)-3-methyl-piperazin-1-yl]-3-oxo-propyl]-5-cyclopropyl-imidazolidine-2,4-dione], the concentration for half-maximal inhibition (IC50) at human ADAMTS-5 was 275 nM; on human TACE it was more than 20000 nM.

In the case of `C[C@H]1CN(C(=O)CCC2(C3CC3)NC(=O)NC2=O)CCN1c1cccc(-c2cnn(C)c2)c1` (stereo partly drawn) [compound 283, 5-cyclopropyl-5-[3-[(3S)-3-methyl-4-[3-(1-methylpyrazol-4-yl)phenyl]piperazin-1-yl]-3-oxo-propyl]imidazolidine-2,4-dione], the IC50 on human ADAMTS-5 is 1080 nM; on human TACE, more than 20000 nM.

Take `C[C@H]1CN(C(=O)CCC2(C3CC3)NC(=O)NC2=O)CCN1c1nccc(Cl)n1` (stereo partly drawn) [compound 284, 5-[3-[(3S)-4-(4-chloropyrimidin-2-yl)-3-methyl-piperazin-1-yl]-3-oxo-propyl]-5-cyclopropyl-imidazolidine-2,4-dione]: the IC50 on human ADAMTS-5 is more than 12000 nM; on human TACE, more than 20000 nM.

Consider `C[C@H]1CN(C(=O)CCC2(C3CC3)NC(=O)NC2=O)CCN1c1ccc(Cl)nn1` (stereo partly drawn) [compound 285, 5-[3-[(3S)-4-(6-chloropyridazin-3-yl)-3-methyl-piperazin-1-yl]-3-oxo-propyl]-5-cyclopropyl-imidazolidine-2,4-dione], for which the IC50 on human ADAMTS-5 is 892 nM; at human TACE, more than 4000 nM.

Consider `C[C@H]1CN(C(=O)CCC2(C3CC3)NC(=O)NC2=O)CCN1c1cnccn1` (stereo partly drawn) [compound 286, 5-cyclopropyl-5-[3-[(3S)-3-methyl-4-pyrazin-2-yl-piperazin-1-yl]-3-oxo-propyl]imidazolidine-2,4-dione], for which the half-maximal inhibitory concentration (IC50) at human ADAMTS-5 is more than 4000 nM; at human TACE, more than 20000 nM.

In the case of `C[C@H]1CN(C(=O)CCC2(C3CC3)NC(=O)NC2=O)CCN1c1cnc2ccccc2c1` (stereo partly drawn) [compound 289, 5-cyclopropyl-5-[3-[(3S)-3-methyl-4-(3-quinolyl)piperazin-1-yl]-3-oxo-propyl]imidazolidine-2,4-dione], the values for the IC50 at human ADAMTS-5 and on human TACE were 97 nM and more than 4000 nM, respectively.

In the case of `COCC(CC1(C)NC(=O)NC1=O)C(=O)N1CCN(c2cccc(F)c2)[C@@H](C)C1` (stereo partly drawn) [compound 292, 5-[3-[(3S)-4-(3-fluorophenyl)-3-methyl-piperazin-1-yl]-2-(methoxymethyl)-3-oxo-propyl]-5-methyl-imidazolidine-2,4-dione], the IC50 at human ADAMTS-5 was 48 nM; at human TACE, more than 4000 nM.

For the molecule `C[C@H]1CN(C(=O)CCC2(C3CC3)NC(=O)NC2=O)CCN1c1ccc2[nH]ncc2c1` (stereo partly drawn) [compound 296, 5-cyclopropyl-5-[3-[(3S)-4-(1H-indazol-5-yl)-3-methyl-piperazin-1-yl]-3-oxo-propyl]imidazolidine-2,4-dione], the 50% inhibitory concentration (IC50) on human ADAMTS-5 was more than 4000 nM; at human TACE, more than 20000 nM.

As to `C[C@H]1CN(C(=O)CCC2(C3CC3)NC(=O)NC2=O)CCN1c1ccc2c(cnn2C)c1` (stereo partly drawn) [compound 297, 5-cyclopropyl-5-[3-[(3S)-3-methyl-4-(1-methylindazol-5-yl)piperazin-1-yl]-3-oxo-propyl]imidazolidine-2,4-dione], the figures for the 50% inhibitory concentration (IC50) on human ADAMTS-5 and at human TACE were more than 3620 nM and more than 20000 nM, respectively.

For the molecule `Cc1cc(N2CCN(C(=O)CCC3(C4CC4)NC(=O)NC3=O)C[C@@H]2C)ccc1F` (stereo partly drawn) [compound 298, 5-cyclopropyl-5-[3-[(3S)-4-(4-fluoro-3-methyl-phenyl)-3-methyl-piperazin-1-yl]-3-oxo-propyl]imidazolidine-2,4-dione], the 50% inhibitory concentration (IC50) was 192 nM at human ADAMTS-5 and more than 20000 nM at human TACE.

With `Cc1ccc(N2CCN(C(=O)CCC3(C4CC4)NC(=O)NC3=O)C[C@@H]2C)cc1F` (stereo partly drawn) [compound 299, 5-cyclopropyl-5-[3-[(3S)-4-(3-fluoro-4-methyl-phenyl)-3-methyl-piperazin-1-yl]-3-oxo-propyl]imidazolidine-2,4-dione], the IC50 was 114 nM at human ADAMTS-5 and more than 20000 nM on human TACE.

As to `C[C@H]1CN(C(=O)CCC2(C3CC3)NC(=O)NC2=O)CCN1c1ccc(F)cc1` (stereo partly drawn) [compound 300, 5-cyclopropyl-5-[3-[(3S)-4-(4-fluorophenyl)-3-methyl-piperazin-1-yl]-3-oxo-propyl]imidazolidine-2,4-dione], the concentration for half-maximal inhibition (IC50) at human ADAMTS-5 was 140 nM; on human TACE, more than 20000 nM.

As to `C[C@H]1CN(C(=O)CCC2(C3CC3)NC(=O)NC2=O)CCN1c1ccnc(Cl)n1` (stereo partly drawn) [compound 301, 5-[3-[(3S)-4-(2-chloropyrimidin-4-yl)-3-methyl-piperazin-1-yl]-3-oxo-propyl]-5-cyclopropyl-imidazolidine-2,4-dione], the IC50 on human ADAMTS-5 and at human TACE was more than 20000 nM each time.

`Cc1cncc(N2CCN(C(=O)CCC3(C4CC4)NC(=O)NC3=O)C[C@@H]2C)c1` (stereo partly drawn) [compound 303, 5-cyclopropyl-5-[3-[(3S)-3-methyl-4-(5-methyl-3-pyridyl)piperazin-1-yl]-3-oxo-propyl]imidazolidine-2,4-dione]: the IC50 on human ADAMTS-5 was 266 nM; at human TACE, more than 20000 nM.

On to `C[C@H]1CN(C(=O)CCC2(C3CC3)NC(=O)NC2=O)CCN1c1cncnc1` (stereo partly drawn) [compound 304, 5-cyclopropyl-5-[3-[(3S)-3-methyl-4-pyrimidin-5-yl-piperazin-1-yl]-3-oxo-propyl]imidazolidine-2,4-dione], for which the values for the IC50 at human ADAMTS-5 and at human TACE were more than 4000 nM and more than 20000 nM, respectively.

Regarding `Cc1ccc(N2CCN(C(=O)CCC3(C4CC4)NC(=O)NC3=O)C[C@@H]2C)cc1Cl` (stereo partly drawn) [compound 306, 5-[3-[(3S)-4-(3-chloro-4-methyl-phenyl)-3-methyl-piperazin-1-yl]-3-oxo-propyl]-5-cyclopropyl-imidazolidine-2,4-dione], the IC50 was 67 nM at human ADAMTS-5 and more than 4000 nM on human TACE.

Usually IC50 stands for the concentration needed to halve the response being measured.
